Patent US20080021026A1, “BENZOTHIOPHENE INHIBITORS OF RHO KINASE” (priority 2006, published 2008)

Columns and labels:
[1] = molecular target: T1, recombinant N-terminal GST-tagged human Rho kinase 2 (ROCK2, amino acids 1-552) (Homo sapiens, UniProt O75116); assay: In vitro Rho kinase assay (luciferase-based ATP consumption), ROCK2; type: biochemical; conditions: recombinant GST-tagged human ROCK2, luciferase-based ATP consumption; read-out: ROCK2 IC50
T1 construct: ROCK2, amino acids 1-552; purchased Invitrogen Inc. PV3759
T1 sequence (O75116 1-552): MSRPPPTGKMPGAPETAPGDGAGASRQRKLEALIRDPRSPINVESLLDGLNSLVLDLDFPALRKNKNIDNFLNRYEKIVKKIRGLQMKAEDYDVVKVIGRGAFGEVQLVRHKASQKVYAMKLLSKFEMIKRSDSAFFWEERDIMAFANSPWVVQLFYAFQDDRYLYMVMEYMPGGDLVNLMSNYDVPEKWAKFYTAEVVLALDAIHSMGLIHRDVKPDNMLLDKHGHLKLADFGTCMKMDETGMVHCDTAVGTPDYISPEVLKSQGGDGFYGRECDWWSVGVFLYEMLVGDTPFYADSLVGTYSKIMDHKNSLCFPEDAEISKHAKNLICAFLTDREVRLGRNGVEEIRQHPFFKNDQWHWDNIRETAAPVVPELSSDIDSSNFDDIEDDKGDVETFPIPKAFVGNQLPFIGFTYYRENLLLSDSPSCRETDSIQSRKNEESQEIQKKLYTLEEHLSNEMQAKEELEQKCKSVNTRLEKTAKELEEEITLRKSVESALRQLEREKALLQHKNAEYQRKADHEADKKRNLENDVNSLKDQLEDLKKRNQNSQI
Procedure, shortened: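 GST-ROCK2 (aa 1-552, 0.82 μg/ml) with 100 μg/ml S6 peptide and 3 µM ATP in Tris pH 7.5 buffer with MgCl2/CaCl2/EGTA/BSA, compound added just after reaction start, 2 h at 30 °C. Remaining ATP read by luciferase luminescence. Efficacy expressed as percentage of H-1152P positive control.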

[2] = molecular target: T2, recombinant N-terminal GST-tagged human Rho kinase 1 (ROCK1, amino acids 1-535) (Homo sapiens, UniProt Q13464); assay: In vitro Rho kinase assay (luciferase-based ATP consumption), ROCK1; type: biochemical; conditions: recombinant GST-tagged human ROCK1, luciferase-based ATP consumption; read-out: ROCK1 IC50
T2 construct: ROCK1, amino acids 1-535; purchased Invitrogen Inc. PV-3691
T2 sequence (Q13464 1-535): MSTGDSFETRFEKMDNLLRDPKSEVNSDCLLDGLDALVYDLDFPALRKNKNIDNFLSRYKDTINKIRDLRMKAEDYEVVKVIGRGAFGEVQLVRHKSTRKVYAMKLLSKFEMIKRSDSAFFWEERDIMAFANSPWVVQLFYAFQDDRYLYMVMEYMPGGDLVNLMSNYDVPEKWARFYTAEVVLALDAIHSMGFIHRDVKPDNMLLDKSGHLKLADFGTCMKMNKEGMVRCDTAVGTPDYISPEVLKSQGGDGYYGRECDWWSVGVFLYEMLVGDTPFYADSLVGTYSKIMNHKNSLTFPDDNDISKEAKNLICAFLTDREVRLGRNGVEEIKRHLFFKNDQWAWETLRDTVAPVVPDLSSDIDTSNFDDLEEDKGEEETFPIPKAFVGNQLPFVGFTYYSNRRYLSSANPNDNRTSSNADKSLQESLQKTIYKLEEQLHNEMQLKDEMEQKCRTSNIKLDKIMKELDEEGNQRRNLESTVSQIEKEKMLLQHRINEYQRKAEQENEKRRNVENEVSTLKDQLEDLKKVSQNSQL
Procedure: In Vitro Rho Kinase Assay
Rho kinase biochemical assays described below depend on firefly luciferase-based, indirect measurement of total ATP consumption by the kinase following incubation with substrate and ATP. 25 μl of Rho kinase assay buffer (20 mM Tris-HCL [pH 7.5], 1 mM MgCl2, 0.4 mM CaCl2, 0.15 mM EGTA, 0.1 mg/ml bovine serum albumin) containing 0.82 μg/ml of recombinant N-terminal GST-tagged human Rho kinase 1 (ROCK1, amino acids 1-535, Invitrogen Inc., cat. #PV-3691) or recombinant N-terminal GST-tagged human Rho kinase 2 (ROCK2, amino acids 1-552, Invitrogen Inc., cat #PV3759), 100 μg/ml S6 peptide substrate (related to amino acids 218-249 of the human 40S ribosomal protein S6, and suitable for ROCK1 or ROCK2, e.g. Upstate/Millipore Inc., cat #12-420), and 3 µM ATP are dispensed to wells of a 384 multi-well opaque plate. The plate is centrifuged for 30 seconds at approximately 200×g. 240 nl of test compound in DMSO is dispensed to each well by passive pin transfer. The lag phase of this in vitro kinase reaction permits addition of compounds soon after the reaction initiates. The reaction is allowed to incubate at 30° C. for 2 hours. The assay plates are sealed and maintained in a humidified environment. After 2 hours, 25 μl of easylite protein kinase assay reagent (Perkin-Elmer, Inc.) is dispensed. After an additional 10 minute incubation at room temperature (about 22° C.), luminescence activity is measured on a Molecular Devices Analyst multi-mode plate reader or other suitable plate reader. Kinase inhibition results in less ATP consumption, and therefore increased luminescence signal. Negative control activity is measured with DMSO lacking any test compound. The positive control is 2-methyl-1-(4-methylisoquinolin-5-ylsulfonyl)perhydro-1,4-diazepine hydrochloride (aka H-1152P, HCl salt). Efficacy is measured as a percentage of positive control activity. […] The designation NT means the cited example was not tested.

Compound	IC50 [1] [µM]	IC50 [2] [µM]
Cc1c(-c2ccnc(N)n2)sc2ccc(CNC(=O)CCc3ccccc3Br)cc12 [Example 303, Cc1c(sc2ccc(CNC(═O)CCc3ccccc3Br)cc12)-c4ccnc(N)n4]	> 5	> 5
Cc1c(-c2ccnc(N)n2)sc2ccc(CNC(=O)C3Cc4ccccc4CN3C(=O)OC(C)(C)C)cc12 (stereo not drawn) [Example 327, Cc1c(sc2ccc(CNC(═O)[C]3Cc4ccccc4CN3C(═O)OC(C)(C)C)cc12)-c5ccnc(N)n5]	> 5	< 5
Cc1c(-c2ccnc(N)n2)sc2ccc(CNC(=O)C(NC(=O)OC(C)(C)C)C(C)C)cc12 (stereo not drawn) [Example 293, CC(C)[C](NC(═O)OC(C)(C)C)C(═O)NCc1ccc2sc(c(C)c2c1)-c3ccnc(N)n3]	–	> 5
Cc1ccc(N2CCN(C(=O)c3ccc4sc(-c5ccnc(N)n5)c(C)c4c3)CC2)cc1C [Example 537, Cc1ccc(cc1C)N2CCN(CC2)C(═O)c3ccc4sc(c(C)c4c3)-c5ccnc(N)n5]	> 5	–
Cc1c(-c2ccnc(N)n2)sc2ccc(C(=O)N3CCC(N(C)C(=O)OC(C)(C)C)C3)cc12 (stereo not drawn) [Example 549, CN(C1CCN(C1)C(═O)c2ccc3sc(c(C)c3c2)-c4ccnc(N)n4)C(═O)OC(C)(C)C]	> 5	–
Cc1c(-c2ccnc(N)n2)sc2ccc(C(=O)N3CCN(c4ccc(Cl)cc4)CC3)cc12 [Example 545, Cc1c(sc2ccc(cc12)C(═O)N3CCN(CC3)c4ccc(Cl)cc4)-c5ccnc(N)n5]	> 5	–
Cc1c(-c2ccnc(N)n2)sc2ccc(C(=O)NCc3ccccc3OC(F)(F)F)cc12 [Example 453, Cc1c(sc2ccc(cc12)C(═O)NCc3ccccc3OC(F)(F)F)-c4ccnc(N)n4]	> 5	–
COc1cc(CNC(=O)c2ccc3sc(-c4ccnc(N)n4)c(C)c3c2)cc(OC)c1 [Example 439, COc1cc(CNC(═O)c2ccc3sc(c(C)c3c2)-c4ccnc(N)n4)cc(OC)c1]	< 5	–
COc1ccccc1CNC(=O)c1ccc2sc(-c3ccnc(N)n3)c(C)c2c1 [Example 402, COc1ccccc1CNC(═O)c2ccc3sc(c(C)c3c2)-c4ccnc(N)n4]	< 5	–
Cc1c(-c2ccnc(N)n2)sc2ccc(C(=O)N3C[C@@H](C)N[C@@H](C)C3)cc12 [Example 485, C[C@@H]1CN(C[C@H](C)N1)C(═O)c2ccc3sc(c(C)c3c2)-c4ccnc(N)n4]	< 5	–
Cc1c(-c2ccnc(N)n2)sc2ccc(C(=O)N3CCN(C(=O)OC(C)(C)C)CC3)cc12 [Example 530, Cc1c(sc2ccc(cc12)C(═O)N3CCN(CC3)C(═O)OC(C)(C)C)-c4ccnc(N)n4]	> 5	–
Cc1cnc(CNC(=O)c2ccc3sc(-c4ccnc(N)n4)c(C)c3c2)cn1 [Example 381, Cc1cnc(CNC(═O)c2ccc3sc(c(C)c3c2)-c4ccnc(N)n4)cn1]	< 5	–
Cc1c(-c2ccnc(N)n2)sc2ccc(C(=O)N3CC(C)CC(C)C3)cc12 (stereo not drawn) [Example 481, CC1CC(C)CN(C1)C(═O)c2ccc3sc(c(C)c3c2)-c4ccnc(N)n4]	< 5	–
Cc1c(-c2ccnc(N)n2)sc2ccc(C(=O)NCCc3cccc(Cl)c3)cc12 [Example 429, Cc1c(sc2ccc(cc12)C(═O)NCCc3cccc(Cl)c3)-c4ccnc(N)n4]	< 5	–
Cc1c(-c2ccnc(N)n2)sc2ccc(C(=O)NCCC(c3ccccc3)c3ccccc3)cc12 [Example 457, Cc1c(sc2ccc(cc12)C(═O)NCCC(c3ccccc3)c4ccccc4)-c5ccnc(N)n5]	> 5	–
Cc1c(-c2ccnc(N)n2)sc2ccc(C(=O)NCc3ccc(F)cc3)cc12 [Example 383, Cc1c(sc2ccc(cc12)C(═O)NCc3ccc(F)cc3)-c4ccnc(N)n4]	< 5	–

Now from value to compound:

IC50 [1] [µM]	IC50 [2] [µM]	Compound
< 5	< 5	Cc1c(-c2ccnc(N)n2)sc2ccc(CNC(=O)Cc3ccc4c(c3)OCO4)cc12 [Example 212, Cc1c(sc2ccc(CNC(═O)Cc3ccc4OCOc4c3)cc12)-c5ccnc(N)n5]
< 5	< 5	COc1cc(C(=O)NCc2ccc3sc(-c4ccnc(N)n4)c(C)c3c2)cc(Cl)n1 [Example 235, COc1cc(cc(Cl)n1)C(═O)NCc2ccc3sc(c(C)c3c2)-c4ccnc(N)n4]
< 5	< 5	Cc1c(-c2ccnc(N)n2)sc2ccc(C(=O)Nc3ccc(OCCN4CCOCC4)cc3)cc12 [Example 21, 2-(2-Aminopyrimidin-4-yl)-3-methyl-N-(4-(2-morpholinoethoxy)phenyl)benzo[b]thiophene-5-carboxamide]
< 5	> 5	Cc1c(-c2ccnc(N)n2)sc2ccc(CNC(=O)c3cccc(Br)c3)cc12 [Example 262, Cc1c(sc2ccc(CNC(═O)c3cccc(Br)c3)cc12)-c4ccnc(N)n4]
< 5	< 5	Cc1c(-c2ccnc(N)n2)sc2ccc(CN)cc12 [Example 33, 4-(5-(Aminomethyl)-3-methylbenzo[b]thiophen-2-yl)pyrimidin-2-amine]
< 5	< 5	Cc1c(-c2ccnc(N)n2)sc2ccc(CNC(=O)c3ccc(C#N)cc3)cc12 [Example 126, Cc1c(sc2ccc(CNC(═O)c3ccc(cc3)C#N)cc12)-c4ccnc(N)n4]
< 5	< 5	CCc1c(-c2ccnc(N)n2)sc2ccc(Cl)cc12 [Example 16, 4-(5-Chloro-3-ethylbenzo[b]thiophen-2-yl)pyrimidin-2-amine]
< 5	< 5	Cc1c(-c2ccnc(N)n2)sc2ccc(CNC(=O)c3cc4ccccc4s3)cc12 [Example 202, Cc1c(sc2ccc(CNC(═O)c3cc4ccccc4s3)cc12)-c5ccnc(N)n5]
< 5	> 5	Cc1cccc(C(=O)NCc2ccc3sc(-c4ccnc(N)n4)c(C)c3c2)c1O [Example 139, Cc1cccc(C(═O)NCc2ccc3sc(c(C)c3c2)-c4ccnc(N)n4)c1O]
< 5	–	Cc1c(-c2ccnc(N)n2)sc2ccc(C(=O)NCCCCO)cc12 [Example 354, Cc1c(sc2ccc(cc12)C(═O)NCCCCO)-c3ccnc(N)n3]
< 5	–	C#CCN(C)C(=O)c1ccc2sc(-c3ccnc(N)n3)c(C)c2c1 [Example 461, CN(CC#C)C(═O)c1ccc2sc(c(C)c2c1)-c3ccnc(N)n3]
< 5	–	COc1ccc(OC)c(CCNC(=O)c2ccc3sc(-c4ccnc(N)n4)c(C)c3c2)c1 [Example 449, COc1ccc(OC)c(CCNC(═O)c2ccc3sc(c(C)c3c2)-c4ccnc(N)n4)c1]
< 5	–	COc1cccc(CCNC(=O)c2ccc3sc(-c4ccnc(N)n4)c(C)c3c2)c1 [Example 421, COc1cccc(CCNC(═O)c2ccc3sc(c(C)c3c2)-c4ccnc(N)n4)c1]
< 5	–	Cc1ccc(Cl)cc1N1CCN(C(=O)c2ccc3sc(-c4ccnc(N)n4)c(C)c3c2)CC1 [Example 554, Cc1ccc(Cl)cc1N2CCN(CC2)C(═O)c3ccc4sc(c(C)c4c3)-c5ccnc(N)n5]
< 5	–	Cc1c(-c2ccnc(N)n2)sc2ccc(C(=O)NCC(C)c3ccccc3)cc12 (stereo not drawn) [Example 396, CC(CNC(═O)c1ccc2sc(c(C)c2c1)-c3ccnc(N)n3)c4ccccc4]
< 5	–	Cc1c(-c2ccnc(N)n2)sc2ccc(C(=O)N3CCN(c4ccc(C#N)cn4)CC3)cc12 [Example 533, Cc1c(sc2ccc(cc12)C(═O)N3CCN(CC3)c4ccc(cn4)C#N)-c5ccnc(N)n5]
< 5	–	Cc1c(-c2ccnc(N)n2)sc2ccc(C(=O)NCc3ccc(F)c(Cl)c3)cc12 [Example 432, Cc1c(sc2ccc(cc12)C(═O)NCc3ccc(F)c(Cl)c3)-c4ccnc(N)n4]
< 5	–	Cc1c(-c2ccnc(N)n2)sc2ccc(Nc3cccc(O)c3)cc12 [Example 52, 3-(2-(2-Aminopyrimidin-4-yl)-3-methylbenzo[b]thiophen-5-ylamino)phenol]
